Measurements as given in patent publication US20130064890A1, “PHARMACEUTICAL FORMULATION BASED ON IBUPROFEN AND CODEINE HAVING IMPROVED STABILITY” ([…] MANUFACTURING, S.L., priority 2010, published 2013).

Experiment: Differential Scanning Calorimetry (DSC) detection of incompatibilities, binary mixtures in equal parts
Assay type: physicochemical
Settings: mixture in equal parts with ibuprofen, heating rate 5° C./min
Description: The technique called Differential Scanning calorimetry or DSC has been used for the thermal detection of possible incompatibilities among ingredients of the pharmaceutical formulation described in the present invention. Thus, by using a differential Scanning calorimeter, DSC-7 (Perkin-Elmer, USA) at a heating rate of the samples of 5° C./min, the quantity of energy or enthalpy required to keep the sample at the same temperature as that of the reference and that at each of the test temperatures is measured. […] However, when phase changes occur, the isothermal energy required is registered as an electric signal generated by thermocouples. It is understood that a change of phase occurs (or appearance of incompatibility) if the expected temperature value varies above the considered environment by 10% with respect to its original. Said error is carried from that produced typically in the analytical measurements (±5%, typical in terms of reproducibility), the uncertainty of apparatus calibration (±1%), the accuracy of the micromixture of ingredients achieved (±3%), and the rapid heating rates (±1% for heating>1° C./min). DSC is widely used in the industry as a quality control instrument due to its applicability in assessing the purity of the samples and studying the curing of the polymers. […]

Compound	thermal/physical incompatibility with ibuprofen by DSC
CCCCCCCCCCCCCCCCCCOC(=O)/C=C/C(=O)[O-].[Na+] [sodium stearyl fumarate]	does not show any physical incompatibility
magnesium stearate	incompatible eutectic mixture
